Common to all, as to format: cell-based
Assay [1] concerns NCI-H460 (human lung cancer cell line). Briefly: In vitro MTS cell viability assay (NCI-60 methodology), NCI-H460. The following applies: NCI-H460 cells, read-out: NCI-H460 LC50. As for the experimental part:
(§1) The cell viability measurement is based on the NCI-60 screening methodology (Nat. Rev. Cancer 6, 813-823, 2006). Briefly, cells are inoculated into 96-well plates at the optimal plating density. After 24 h, one of the two plates for Hep3B cell line is processed to determine a time zero cell viability (Tz) by MTS assay (Promega). Compounds are added over a 2-fold serial dilution to provide a total five drug concentrations plus DMSO control. Plates are incubated for a further 2 days, then measured cell viability by MTS assay [control growth (C) and test growth in the presence of drug at the five concentration levels (Ti)]. The LC50 is calculated from [(Ti−Tz)/Tz]×100=−50, which is the drug concentration resulting in a 50% reduction at the end of the drug treatment as compared to that at the beginning.
(§2) The compounds prepared in Tables 1-10 were tested in three in vitro assays, and the results are shown in Tables 1-10 for Hep3B and Table 11 for SW480 and NCI-H460 shown below. Herein, Hep3B refers to hepatocellular carcinoma cell line, SW480 refers to colon adenocarcinoma cell line, and NCI-H460 refers to human lung cancer cell line.
(§3) Shown in Tables 11 are in vitro activities of exemplary compounds of formula (I).

In assay [2] the test system is SW480 (colon adenocarcinoma cell line). Briefly: In vitro MTS cell viability assay (NCI-60 methodology), SW480. To be noted: Homo sapiens, SW480 cells, read-out: SW480 LC50. As for the experimental part: as §1, §2, §3
Assay [3] deals with Hep3B cells (hepatocellular carcinoma cell line). Briefly: In vitro MTS cell viability assay (NCI-60 methodology), Hep3B. The following applies: Homo sapiens, 48 h, Table 6, MTS, 2 days drug incubation, 50% reduction vs time zero, read-out: Hep3B LC50. The procedure, abridged: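 Following NCI-60 method, MTS viability of Hep3B measured 24 h after plating (time zero) and after a further 2-day exposure to five concentrations (2-fold series). LC50 defined where [(Ti−Tz)/Tz]×100 = −50.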

The text below walks through data of patent US20240150356A1, “Pyrimidine amide compounds and use thereof” (ALPHALA CO., LTD., priority 2019, published 2024).

On to `COC(=O)[C@@H]1CCCN1c1nc(NC(=O)c2ccc([N+](=O)[O-])s2)c2cnn(-c3ccc(C(C)(C)C)cc3)c2n1` [Compound 6-69, methyl(1-(4-(tert-butyl)phenyl)4-(5-nitrothiophene-2-carboxamido)-1H-pyrazolo[3,4-d]pyrimidin-6-yl)-L-prolinate], for which the CC50 in assay [1] was 2760 nM; in assay [2], 890 nM. The LC50 in assay [3] worked out at 440 nM.
On to `CC(C)(C)c1ccc(-n2ncc3c(NC(=O)c4ccc([N+](=O)[O-])s4)nc(N4CCC[C@H]4CO)nc32)cc1` [Compound 6-71, (S)—N-(1-(4-(tert-butyl)phenyl)-6-(2-(hydroxymethyl)pyrrolidin-1-yl)-1H-pyrazolo[3,4-d]pyrimidin-4-yl)-5-nitrothiophene-2-carboxamide], for which the figures for the CC50 in assay [1] and in assay [2] were 440 nM and 980 nM, respectively. The LC50 in assay [3] was 280 nM.
Regarding `CC(C)(C)c1ccc(-n2ncc3c(NC(=O)c4ccc([N+](=O)[O-])s4)nc(-n4cccn4)nc32)cc1` [Compound 6-75, N-(1-(4-tert-butyl)phenyl)-6-(4-(1H-pyrazol-1-yl)-1H-pyrazolo[3,4-d]pyrimidin-4-yl)-5-nitrothiophene-2-carboxamide], the CC50 in assay [1] was 1280 nM; in assay [2], 5480 nM. Besides, the LC50 in assay [3] worked out at 240 nM.
The like results for `O=C(Nc1nc(N2CCC(F)(F)C2)nc2c1cnn2-c1ccc(OC(F)(F)F)cc1)c1ccc([N+](=O)[O-])s1` [Compound 6-85, N-(6-(3,3-difluoropyrrolidin-1-yl)-1-(4-(trifluoromethoxy)phenyl)-1H-pyrazolo[3,4-d]pyrimidin-4-yl)-5-nitrothiophene-2-carboxamide] were, in that order, 560 nM, 680 nM and 200 nM.
In the case of `O=C(Nc1nc(-c2ccc(F)cc2)nc2c1cnn2-c1cccc(F)c1)c1ccc([N+](=O)[O-])s1` [Compound 6-89, N-(1-(3-fluorophenyl)-6-(4-fluorophenyl)-1H-pyrazolo[3,4-d]pyrimidin-4-yl)-5-nitrothiophene-2-carboxamide], the CC50 in assay [1] was determined as 710 nM; in assay [2], 810 nM. In addition, the LC50 in assay [3] is 120 nM.
The like results for `O=C(Nc1nc(-c2ccc(F)nc2)nc2c1cnn2-c1cccc(F)c1)c1ccc([N+](=O)[O-])s1` [Compound 6-90, N-(1-(3-fluorophenyl)-6-(6-fluoropyridin-3-yl)-1H-pyrazolo[3,4-d]pyrimidin-4-yl)-5-nitrothiophene-2-carboxamide] were, in that order, 560 nM, 540 nM and 140 nM.
As for `CCOC[C@@H]1CCCN1c1nc(NC(=O)c2ccc([N+](=O)[O-])s2)c2cnn(-c3ccc(F)cc3)c2n1` [Compound 6-104], the CC50 was 860 nM in assay [1] and 650 nM in assay [2]. In addition, the LC50 in assay [3] is 380 nM.
Regarding `O=C(Nc1nc(N2CCC[C@H]2COc2ccccc2)nc2c1cnn2-c1ccc(F)cc1)c1ccc([N+](=O)[O-])s1` [Compound 6-106, (S)—N-(1-(4-fluorophenyl)-6-(2-(phenoxymethyl)pyrrolidin-1-yl)-1H-pyrazolo[3,4-d]pyrimidin-4-yl)-5-nitrothiophene-2-carboxamide], the CC50 was 1650 nM in assay [1] and 500 nM in assay [2]. In addition, the LC50 in assay [3] was 430 nM.
In the case of `O=C(Nc1nc(-c2ccccc2)nc2c1cnn2-c1ccc(F)cc1)c1ccc([N+](=O)[O-])s1` [Compound 6-110, N-(1-(4-fluorophenyl)-6-phenyl-1H-pyrazolo[3,4-d]pyrimidin-4-yl)-5-nitrothiophene-2-carboxamide], the CC50 in assay [1] is 1410 nM; in assay [2], 1250 nM. Further, the LC50 in assay [3] worked out at 230 nM.
Take `O=C(Nc1nc(-c2cccnc2)nc2c1cnn2-c1ccc(F)cc1)c1ccc([N+](=O)[O-])s1` [Compound 6-111, N-(1-(4-fluorophenyl)-6-(pyridin-3-yl)-1H-pyrazolo[3,4-d]pyrimidin-4-yl)-5-nitrothiophene-2-carboxamide]: the CC50 in assay [1] was 1870 nM; in assay [2], above 4000 nM. Also, the median lethal concentration (LC50) in assay [3] was 90 nM.
Turning to `O=C(Nc1nc(-c2cncnc2)nc2c1cnn2-c1ccc(F)cc1)c1ccc([N+](=O)[O-])s1` [Compound 6-112, N-(1-(4-fluorophenyl)-6-(pyrimidin-5-yl)-1H-pyrazolo[3,4-d]pyrimidin-4-yl)-5-nitrothiophene-2-carboxamide], the CC50 was determined as 970 nM in assay [1] and 810 nM in assay [2]. The median lethal concentration (LC50) in assay [3] was found to be 220 nM.
On to `O=C(Nc1nc(-c2cccc(F)c2)nc2c1cnn2-c1ccc(F)cc1)c1ccc([N+](=O)[O-])s1` [Compound 6-114, N-(6-(3-fluorophenyl)-1-(4-fluorophenyl)-1H-pyrazolo[3,4-d]pyrimidin-4-yl)-5-nitrothiophene-2-carboxamide], for which the CC50 was 350 nM in assay [1] and 840 nM in assay [2]. Also, the LC50 in assay [3] was found to be 200 nM.
The like results for `O=C(Nc1nc(-c2ccc(F)cc2)nc2c1cnn2-c1ccc(F)cc1)c1ccc([N+](=O)[O-])s1` [Compound 6-115, N-(1,6-bis(4-fluorophenyl)-1H-pyrazolo[3,4-d]pyrimidin-4-yl)-5-nitrothiophene-2-carboxamide] were, in that order, 1130 nM, 1910 nM and 220 nM.
In the case of `O=C(Nc1nc(-c2ccc(F)nc2)nc2c1cnn2-c1ccc(F)cc1)c1ccc([N+](=O)[O-])s1` [Compound 6-116, N-(1-(4-fluorophenyl)-6-(6-fluoropyridin-3-yl)-1H-pyrazolo[3,4-d]pyrimidin-4-yl)-5-nitrothiophene-2-carboxamide], the CC50 in assay [1] was 500 nM; in assay [2], 550 nM. Besides, the LC50 in assay [3] worked out at 90 nM.
In the case of `O=C(Nc1nc(-c2cccc(Cl)c2)nc2c1cnn2-c1ccc(F)cc1)c1ccc([N+](=O)[O-])s1` [Compound 6-117, N-(6-(3-chlorophenyl)-1-(4-fluorophenyl)-1H-pyrazolo[3,4-d]pyrimidin-4-yl)-5-nitrothiophene-2-carboxamide], the CC50 came to 600 nM in assay [1] and 910 nM in assay [2]. Further, in assay [3], the median lethal concentration (LC50) stood at 150 nM.
On to `O=C(Nc1nc(-c2ccc(Cl)cc2)nc2c1cnn2-c1ccc(F)cc1)c1ccc([N+](=O)[O-])s1` [Compound 6-118, N-(6-(chlorophenyl)-1-(4-fluorophenyl)-1H-pyrazolo[3,4-d]pyrimidin-4-yl)-5-nitrothiophene-2-carboxamide], for which the CC50 in assay [1] came out at 980 nM; in assay [2] it was 2180 nM. Besides, in assay [3], the LC50 was found to be 250 nM.
Take `O=C(Nc1nc(-c2ccc(Cl)nc2)nc2c1cnn2-c1ccc(F)cc1)c1ccc([N+](=O)[O-])s1` [Compound 6-119, N-(6-(6-chloropyridin-3-yl)-1-(4-fluorophenyl)-1H-pyrazolo[3,4-d]pyrimidin-4-yl)-5-nitrothiophene-2-carboxamide]: the results for the CC50 in assay [1] and in assay [2] were 530 nM and 690 nM, respectively. Moreover, the LC50 in assay [3] was 80 nM.
For the molecule `Cc1ccc(-c2nc(NC(=O)c3ccc([N+](=O)[O-])s3)c3cnn(-c4ccc(F)cc4)c3n2)cn1` [Compound 6-120, N-(1-(4-fluorophenyl)-6-(6-methylpyridin-3-yl)-1H-pyrazolo[3,4-d]pyrimidin-4-yl)-5-nitrothiophene-2-carboxamide], the CC50 in assay [1] came to 1340 nM; in assay [2] it was 510 nM. For the same molecule, in assay [3], the LC50 stood at 250 nM.
On to `COc1ccc(-c2nc(NC(=O)c3ccc([N+](=O)[O-])s3)c3cnn(-c4ccc(F)cc4)c3n2)cn1` [Compound 6-121, N-(1-(4-fluorophenyl)-6-(6-methoxypyridin-3-yl)-1H-pyrazolo[3,4-d]pyrimidin-4-yl)-5-nitrothiophene-2-carboxamide], for which the figures for the CC50 in assay [1] and in assay [2] were 480 nM and 630 nM, respectively. Besides, the LC50 in assay [3] was 70 nM.
The like results for `O=C(Nc1nc(-c2ccc(F)c(F)c2)nc2c1cnn2-c1ccc(F)cc1)c1ccc([N+](=O)[O-])s1` [Compound 6-125, N-(6-(3,4-difluorophenyl)-1-(4-fluorophenyl)-1H-pyrazolo[3,4-d]pyrimidin-4-yl)-5-nitrothiophen-2-carboxamide] were, in that order, 350 nM, 2280 nM and 100 nM.
With `O=C(Nc1nc(-c2ccc(Cl)c(F)c2)nc2c1cnn2-c1ccc(F)cc1)c1ccc([N+](=O)[O-])s1` [Compound 6-127], the CC50 in assay [1] came to 450 nM; in assay [2], 1060 nM. The LC50 in assay [3] worked out at 150 nM.
As for `O=C(Nc1nc(-c2ccc(Cl)cc2F)nc2c1cnn2-c1ccc(F)cc1)c1ccc([N+](=O)[O-])s1` [Compound 6-128, N-(6-(4-chloro-2-fluorophenyl)-1-(4-fluorophenyl)-1H-pyrazolo[3,4,d]pyrimidin-4-yl)-5-nitrothiophene-2-carboxamide], the values for the CC50 in assay [1] and in assay [2] were 310 nM and 570 nM, respectively. Moreover, the LC50 in assay [3] is 70 nM.
